One data set deals with Smn protein. In words: Smn protein assay in cultured cells (SMN HTRF). The class given is cell-based, human. Conditions: 48 hours; for maximum fold (Fold) increase of Smn protein: SMA patient fibroblast cells, 7-point concentration data, fold increase relative to vehicle control (SMN HTRF); for EC1.5x (concentration giving 1.5-fold Smn protein increase): SMA Type 1 patient fibroblast cells (GM03813), 7-point concentration curve, SMN HTRF, concentration producing 1.5 times Smn protein vs DMSO vehicle control, read-out: EC1.5x for Smn protein expression. Put shortly: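 Lysates in RIPA with protease inhibitors are incubated overnight at room temperature with HTRF anti-SMN antibodies. EC1.5x is derived from fold increase in ΔF over vehicle.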
On the technique in general: TR-FRET usually uses a lanthanide donor and a delayed reading to cut background.

The subject of data set [1] is SMN2 minigene (full length SMN2 minigene mRNA containing SMN2 exon 7). Kind of data set: SMN2 minigene mRNA splicing RT-qPCR assay in cultured cells. The format is cell-based, human. As to conditions: Homo sapiens, HEK293-H; HEK293H cells stably transfected with SMN2-A minigene; 24 hours; 7-point concentration curve; 1.5-fold relative to vehicle-treated cells; read-out: EC1.5x for production of full length SMN2 mRNA. Put shortly:
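Read-out: full-length (exon 7-included) SMN2 minigene mRNA by multiplex RT-qPCR with GAPDH, efficiency-corrected (1+E)^−Ct, GAPDH-normalized and divided by vehicle. Stably transfected HEK293H cells, 24 h compound exposure, duplicates per concentration. Value is EC1.5x, reported as star ranges.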
Background: Real-time PCR tracks product formation cycle by cycle.

We go through 20 compounds from USRE47689E1, “Compounds for treating spinal muscular atrophy” (PTC Therapeutics, Inc., priority 2011, dated 2019).

A word on the melting point: it is the temperature of the solid-liquid transition.

Molecules are shown by their SMILES.

Consider `Cc1ccn2cc(-c3cc4ccc(NCCCN(C)C)cc4oc3=O)nc2c1` [Compound 475, 7-{[3-(dimethylamino)propyl]amino}-3-(7-methylimidazo[1,2-a]pyridin-2-yl)-2H-chromen-2-one], for which the melting point was 165 to 170 °C. In addition, the “maximum fold (Fold) increase of Smn protein” value (“maximum fold (Fold) increase” below) with Smn protein is “* (maximum fold increase of ≤1.2)”. Further, the EC (1.5-fold) in data set [1] was in the range of 3 to 30 µM.

With `CN1CCN(c2ccc3cc(-c4cn5cc(Cl)ccc5n4)c(=O)oc3c2)CC1` [Compound 94, 3-(6-chloroimidazo[1,2-a]pyridin-2-yl)-7-(4-methylpiperazin-1-yl)-2H-chromen-2-one], the melting point lay within 290 to 292 °C. The “maximum fold (Fold) increase” value in the data set with Smn protein was “*** (fold increase between >1.35 and ≤1.5)”. In data set [1], the EC (1.5-fold) was 3 to 30 µM.

Take `Cc1cn2cc(-c3cc4c(F)cc(N5CCCNCC5)cc4oc3=O)nc2cn1` [Compound 550, 7-(1,4-diazepan-1-yl)-5-fluoro-3-(6-methylimidazo[1,2-a]pyrazin-2-yl)-2H-chromen-2-one]: the melting point fell in the range of 270 to 274 °C. Also, in the data set on Smn protein, the EC1.5x (concentration giving 1.5-fold Smn protein increase) was below 300 nM; the “maximum fold (Fold) increase” value was “**** (fold increase between >1.5 and ≤1.65)”. Besides, in data set [1], the EC (1.5-fold) was below 0.1 µM.

For `COc1cccc(-c2cc3ccc(N4CCNCC4)cc3oc2=O)n1` [Cpd 218, 3-(6-methoxypyridin-2-yl)-7-(piperazin-1-yl)-2H-chromen-2-one], the melting point fell in the range of 162 to 165 °C. Moreover, in the data set on Smn protein, the “maximum fold (Fold) increase” value was “** (fold increase between >1.2 and ≤1.35)”. Moreover, the EC (1.5-fold) in data set [1] was 0.3 to 1 µM.

`Cc1cc(Cl)cn2cc(-c3cc4ccc(N5C[C@@H](C)N[C@@H](C)C5)cc4oc3=O)nc12` [Compound 265, 3-(6-chloro-8-methylimidazo[1,2-a]pyridin-2-yl)-7-[(3R,5S)-3,5-dimethylpiperazin-1-yl]-2H-chromen-2-one] returned a melting point of 271 to 281 °C. Further, in the data set on Smn protein, the “maximum fold (Fold) increase” value is listed as “* (maximum fold increase of ≤1.2)”. For the same compound, the EC (1.5-fold) in data set [1] fell in the range of 1 to 3 µM.

Take `CCC1CN(c2ccc3cc(-c4cn5cc(C)nc(C)c5n4)c(=O)oc3c2)CCN1` (stereo not drawn) [Compound 665, 3-(6,8-dimethylimidazo[1,2-a]pyrazin-2-yl)-7-(3-ethylpiperazin-1-yl)-2H-chromen-2-one]: the melting point fell in the range of 211 to 215 °C. Moreover, in the data set with Smn protein, the EC1.5x (concentration giving 1.5-fold Smn protein increase) was below 300 nM and the “maximum fold (Fold) increase” value is recorded as “***** (fold increase >1.65)”. Also, the EC (1.5-fold) in data set [1] was below 0.1 µM.

As to `Cc1cn2cc(-c3cc4ccc(N5C[C@@H](O)[C@H](N(C)C)C5)cc4oc3=O)cc2c(C)n1` [Compound 734, 7-[(3R,4R)-3-(dimethylamino)-4-hydroxypyrrolidin-1-yl]-3-(1,3-dimethylpyrrolo[1,2-a]pyrazin-7-yl)-2H-chromen-2-one], the melting point was in the range of 173 to 176 °C. In the data set with Smn protein, the EC1.5x (concentration giving 1.5-fold Smn protein increase) is below 300 nM; the “maximum fold (Fold) increase” value was “**** (fold increase between >1.5 and ≤1.65)”. Also, the EC (1.5-fold) in data set [1] was below 0.1 µM.

Turning to `Cc1cn2cc(-c3cc4ccc(N5CCN(C)[C@H](C)C5)cc4oc3=O)ccc2n1` [Compound 661, 7-[(3R)-3,4-dimethylpiperazin-1-yl]-3-(2-methylimidazo[1,2-a]pyridin-6-yl)-2H-chromen-2-one], the melting point fell in the range of 206 to 209 °C. In the data set on Smn protein, the EC1.5x (concentration giving 1.5-fold Smn protein increase) was below 300 nM and the “maximum fold (Fold) increase” value is recorded as “***** (fold increase >1.65)”. Besides, the EC (1.5-fold) in data set [1] is below 0.1 µM.

On to `O=c1oc2cc(N3CCNCC3)cc(F)c2cc1-c1nc2ccccc2[nH]1` [Compound 375, 3-(1H-benzimidazol-2-yl)-5-fluoro-7-(piperazin-1-yl)-2H-chromen-2-one], for which the melting point lay in the range of 245 to 250 °C. Further, the “maximum fold (Fold) increase” value in the data set with Smn protein was “** (fold increase between >1.2 and ≤1.35)”. The EC (1.5-fold) in data set [1] fell in the range of 0.3 to 1 µM.

As to `Cc1cn2cc(-c3cc4c(F)cc(N5CCN(C)CC5)cc4oc3=O)nc2cn1` [Compound 592, 5-fluoro-3-(6-methylimidazo[1,2-a]pyrazin-2-yl)-7-(4-methylpiperazin-1-yl)-2H-chromen-2-one], the melting point lay in the range of 283 to 284 °C. Moreover, in the data set on Smn protein, the EC1.5x (concentration giving 1.5-fold Smn protein increase) was below 300 nM and the “maximum fold (Fold) increase” value is recorded as “***** (fold increase >1.65)”. For the same compound, in data set [1], the EC (1.5-fold) was below 0.1 µM.

On to `C[C@@H]1CN(c2cc(F)c3cc(-c4cn5ccc(C(F)(F)F)cc5n4)c(=O)oc3c2)C[C@H](C)N1` [Cpd 391, 7-[(3R,5S)-3,5-dimethylpiperazin-1-yl]-5-fluoro-3-[7-(trifluoromethyl)imidazo[1,2-a]pyridin-2-yl]-2H-chromen-2-one], for which the melting point fell in the range of 210 to 219 °C. Besides, the “maximum fold (Fold) increase” value with Smn protein is “** (fold increase between >1.2 and ≤1.35)”. In addition, in data set [1], the EC (1.5-fold) was 1 to 3 µM.

`Cc1cn2cc(-c3cc4ccc(N5CCN(CCO)CC5)cc4oc3=O)cc2c(C)n1` [Compound 685, 3-(1,3-dimethylpyrrolo[1,2-a]pyrazin-7-yl)-7-[4-(2-hydroxyethyl)piperazin-1-yl]-2H-chromen-2-one] yielded a melting point of 160 to 164 °C. In addition, in the data set on Smn protein, the EC1.5x (concentration giving 1.5-fold Smn protein increase) was below 300 nM; the “maximum fold (Fold) increase” value is “**** (fold increase between >1.5 and ≤1.65)”. The EC (1.5-fold) in data set [1] was below 0.1 µM.

Regarding `Cc1cn2cc(-c3cc4ccc(N(C)[C@H]5CCN(C)C5)cc4oc3=O)nc2c(C)n1` [Compound 656, 3-(6,8-dimethylimidazo[1,2-a]pyrazin-2-yl)-7-{methyl[(3S)-1-methylpyrrolidin-3-yl]amino}-2H-chromen-2-one], the melting point lay within 178 to 184 °C. Besides, in the data set with Smn protein, the EC1.5x (concentration giving 1.5-fold Smn protein increase) is below 300 nM and the “maximum fold (Fold) increase” value is recorded as “***** (fold increase >1.65)”. In addition, the EC (1.5-fold) in data set [1] is below 0.1 µM.

In turn, `Cc1cc2oc(-c3cc4ccc(N5CCN(C(C)C)CC5)cc4oc3=O)cc2c(C)n1` [Compound 840, 3-(4,6-dimethylfuro[3,2-c]pyridin-2-yl)-7-[4-(propan-2-yl)piperazin-1-yl]-2H-chromen-2-one] showed a melting point of 186 to 191 °C. Besides, in the data set with Smn protein, the “maximum fold (Fold) increase” value was “* (maximum fold increase of ≤1.2)”. The EC (1.5-fold) in data set [1] lay within 0.3 to 1 µM.

`Cc1cn2cc(-c3cc4ccc(N5CCN(C)CC5)cc4oc3=O)nc2s1` [Compound 97, 3-(2-methylimidazo[2,1-b][1,3]thiazol-6-yl)-7-(4-methylpiperazin-1-yl)-2H-chromen-2-one] displayed a melting point above 300 °C. Besides, in the data set with Smn protein, the EC1.5x (concentration giving 1.5-fold Smn protein increase) was in the range of 3000 to 10000 nM; the “maximum fold (Fold) increase” value is “*** (fold increase between >1.35 and ≤1.5)”. Besides, in data set [1], the EC (1.5-fold) is 1 to 3 µM.

`O=c1oc2cc(N3CCCNCC3)ccc2cc1-c1nc(C(F)(F)F)cs1` [Compound 237, 7-(1,4-diazepan-1-yl)-3-[4-(trifluoromethyl)-1,3-thiazol-2-yl]-2H-chromen-2-one]: the melting point turned out to be 200 °C. The “maximum fold (Fold) increase” value in the data set with Smn protein was “* (maximum fold increase of ≤1.2)”. For the same compound, the EC (1.5-fold) in data set [1] fell in the range of 1 to 3 µM.

The compound `Cc1nccn2cc(-c3cc4ccc(N5C[C@@H](C)N[C@@H](C)C5)cc4oc3=O)cc12` [Compound 554, 7-[(3R,5S)-3,5-dimethylpiperazin-1-yl]-3-(1-methylpyrrolo[1,2-a]pyrazin-7-yl)-2H-chromen-2-one] came in with a melting point of 200 to 203 °C. In the data set with Smn protein, the EC1.5x (concentration giving 1.5-fold Smn protein increase) is below 300 nM and the “maximum fold (Fold) increase” value is reported as “***** (fold increase >1.65)”. Besides, the EC (1.5-fold) in data set [1] was below 0.1 µM.

`CCN1CCN(c2ccc3cc(-c4cn5cc(C)ccc5n4)c(=O)oc3c2)CC1` [Compound 95, 7-(4-ethylpiperazin-1-yl)-3-(6-methylimidazo[1,2-a]pyridin-2-yl)-2H-chromen-2-one] yielded a melting point of 266 to 269 °C. In the data set with Smn protein, the EC1.5x (concentration giving 1.5-fold Smn protein increase) was below 300 nM; the “maximum fold (Fold) increase” value was “**** (fold increase between >1.5 and ≤1.65)”. In data set [1], the EC (1.5-fold) is 1 to 3 µM.

Turning to `Cc1cn2cc(-c3cc4ccc(N5CCN(C6CC6)CC5)cc4oc3=O)nc2c(C)n1` [Compound 762, 7-(4-cyclopropylpiperazin-1-yl)-3-(6,8-dimethylimidazo[1,2-a]pyrazin-2-yl)-2H-chromen-2-one], the melting point was 263 to 266 °C. Further, in the data set with Smn protein, the EC1.5x (concentration giving 1.5-fold Smn protein increase) fell in the range of 300 to 1000 nM; the “maximum fold (Fold) increase” value is “**** (fold increase between >1.5 and ≤1.65)”. Further, the EC (1.5-fold) in data set [1] is below 0.1 µM.

Regarding `CN1CCC(c2ccc3cc(-c4ccc5nn(C)cc5c4)c(=O)oc3c2)CC1` [Compound 862, 3-(2-methyl-2H-indazol-5-yl)-7-(1-methylpiperidin-4-yl)-2H-chromen-2-one], the melting point was 215 to 218 °C. Moreover, in the data set on Smn protein, the EC1.5x (concentration giving 1.5-fold Smn protein increase) is 300 to 1000 nM and the “maximum fold (Fold) increase” value is recorded as “***** (fold increase >1.65)”. Further, the EC (1.5-fold) in data set [1] is below 0.1 µM.
